This is an account of results in patent US6300368A, “Anilide derivatives and antiarrhythmic agents containing the same” (priority 1998, dated 2001).

One test relates to aconitin-induced atrial fibrillation. Briefly: Aconitin-induced atrial fibrillation model in anaesthetized dogs (Pharmacological Trial 1). The following applies: Canis lupus familiaris; intravenous, anesthetized dogs, as hydrochloride; read-out: minimum dose level which suppresses atrial fibrillation. The test is classed as in vivo, dog. As for the experimental part:
Pharmacological Trial 1: Evaluation of effectiveness in aconitin-induced atrial fibrillation model (dogs) Evaluation was performed according to K. Hashimoto (Jpn. J. Pharmacol., Vol. 46, 349-358, 1988) as follows:
Method: Dog was anesthetized and thoracotomy was made. Persistent atrial fibrillation was induced by placing a piece of filter paper impregnated with 0.5% aconitin solution (20 to 30 μl) on the right atrium. […] Onset and suppression of atrial fibrillation were monitored electrocardiographically by placing Ag--AgCl bipolar electrode on the right atrial auricle.
Results: Each compound in Examples 1 to 87 suppressed atrial fibrillation at least following dose level (all compounds were used in the form of hydrochloride).
In the case of `COCCCNCCOc1ccc(NC(=O)c2c(OC)cccc2OC)cc1` [Example 48, 2,6-Dimethoxy-4'-[2-[(3-methoxypropyl)amino]ethoxy]benzanilide], the minimal effective dose stood at 3 mg/kg.

Regarding `CCNCCOc1ccc(NC(=O)C2CCOC2)cc1.Cl` (stereo not drawn) [Example 23, 4'-[(2-Ethylamino)ethoxy]-2,3,4,5-tetrahydro-3-furanilide Hydrochloride], the minimal effective dose was found to be 3 mg/kg.

Regarding `CCNCCOc1ccc(NC(=O)C2CCOCC2)cc1.Cl` [Example 3, 4'-[2-(ethylamino)ethoxy]-3,4,5,6-tetrahydro-2H-pyran-4-carboxanilide Hydrochloride], the minimal effective dose came out at 10 mg/kg.

For `COc1cccc(OC)c1C(=O)Nc1ccc(OCCNC(C)C)c(C)c1.Cl` [Example 74, 4'-[2-(Isopropylamino)ethoxy]-2,6-dimethoxy-3'-methylbenzanilide Hydrochloride], the minimal effective dose was determined as 3 mg/kg.

Turning to `COCCC(=O)Nc1ccc(OCCNC(C)C)c(C)c1.Cl` [Example 78, 4'-[2-(Isopropylamino)ethoxy]-3-methoxy-3'-methylpropananilide Hydrochloride], the minimal effective dose worked out at 3 mg/kg.

Regarding `COc1cccc(OC)c1C(=O)Nc1ccc(OCCNCC(C)C)cc1` [Example 38, 4'-[2-(Isobutylamino)ethoxy]-2,6-dimethoxybenzanilide], the minimal effective dose turned out to be 3 mg/kg.

Consider `COc1cccc(OC)c1C(=O)Nc1cc(C)c(OCCNC(C)C)c(C)c1.Cl` [Example 82, 4'-[2-(Isopropylamino)ethoxy]-2,6-dimethoxy-3',5'-dimethyl benzanilide Hydrochloride], for which the minimal effective dose turned out to be 10 mg/kg.

On to `COc1cccc(OC)c1C(=O)Nc1ccc(OCCNC(C)(C)C)cc1` [Example 39, 2,6-Dimethoxy-4'-[2-(tert-butylamino)ethoxy]benzanilide], for which the minimal effective dose amounted to 10 mg/kg.

As for `COc1cc(NC(=O)c2ccccc2NS(C)(=O)=O)ccc1OCCNC(C)C` [Example 58, 4'-[2-(Isopropylamino)ethoxy]-2-meth anesulfonamido-3'-methoxybenzanilide], the minimal effective dose amounted to 10 mg/kg.

Take `COc1cccc(OC)c1C(=O)Nc1ccc(OCCN)cc1.Cl` [Example 1, 4'-(2-aminoethoxy)-2,6-dimethoxybenzanilide Hydrochloride]: the minimal effective dose was determined as 10 mg/kg.

In the case of `CCNCCOc1ccc(NC(=O)c2c(OC)cccc2OC)cc1.Cl` [Example 20, 4'-[(2-Ethylamino)ethoxy]-2,6-dimethoxybenzanilide Hydrochloride], the minimal effective dose was found to be 10 mg/kg.

For the compound `COCCNCCOc1ccc(NC(=O)CCOC)cc1.Cl` [Example 44, 4'-[2-[(2-Methoxyethyl)amino]ethoxy]-3-methoxy propananilide Hydrochloride], the minimal effective dose amounted to 10 mg/kg.

For the compound `COc1cccc(OC)c1C(=O)Nc1ccc(OCCN2CCCCC2)cc1` [Example 18, 2,6-Dimethoxy-4'-(2-piperidinoethoxy)benzanilide], the minimal effective dose was 10 mg/kg.

With `CCN(CC)CCOc1ccc(NC(=O)c2ccccc2NS(=O)(=O)CC)cc1.Cl` [Example 10, 4'-[2-(Diethylamino)ethoxy]-2-(ethanesulfon amido)benzanilide Hydrochloride], the minimal effective dose is 3 mg/kg.

`CCCNCCOc1ccc(NC(=O)c2c(OC)cccc2OC)cc1` [Example 26, 2,6-Dimethoxy-4'-[2-(propylamino)ethoxy]benzanilide]: the minimal effective dose is 10 mg/kg.

On to `Cc1cc(OCCNC(C)C)ccc1NC(=O)c1ccoc1.Cl` [Example 72, 4'-[2-(Isopropylamino)ethoxy]-2'-methyl-3-furanilide Hydrochloride], for which the minimal effective dose is 3 mg/kg.

Regarding `COc1cc(NC(=O)c2ccoc2)ccc1OCCNC(C)C.Cl` [Example 60, 4'-[2-(Isopropylamino)ethoxy]-3'-methoxy-3-furanilide Hydrochloride], the minimal effective dose came out at 10 mg/kg.

Regarding `CCCS(=O)(=O)Nc1ccccc1C(=O)Nc1ccc(OCCN(CC)CC)cc1.Cl` [Example 11, 4'-[2-(Diethylamino)ethoxy]-2-(propanesulfonamido)benzanilide Hydrochloride], the minimal effective dose was 3 mg/kg.

As for `CCCCNCCOc1ccc(NC(=O)c2c(OC)cccc2OC)cc1` [Example 37, 4'-[2-(Butylamino)ethoxy]-2,6-dimethoxybenzanilide], the minimal effective dose was 3 mg/kg.

Take `CC(C)NCCOc1ccc(NC(=O)c2ccccc2S(C)(=O)=O)cc1.Cl` [Example 32, 4'-[2-(Isopropylamino)ethoxy]-2-(methanesulfonyl) benzanilide Hydrochloride]: the minimal effective dose is 10 mg/kg.

As to `CC(C)NCCOc1ccc(NC(=O)c2ccccc2NS(C)(=O)=O)cc1NS(C)(=O)=O.Cl` [Example 66, 4'-[2-(Isopropylamino)ethoxy]-2-methanesulfonamido-3'-(methanesulfonamido)benzanilide Hydrochloride], the minimal effective dose turned out to be 3 mg/kg.

For the compound `COCCC(=O)Nc1ccc(OCCNC(C)C)cc1C` [Example 71, 4'-[2-(Isopropylamino)ethoxy]-3-methoxy-2'-methylpropananilide], the minimal effective dose was determined as 3 mg/kg.

Take `CC(C)NCCOc1ccc(NC(=O)C2CCOCC2)cc1.Cl` [Example 34, 4'-[2-(Isopropylamino)ethoxy]-3,4,5,6-tetrahydro-2H-pyran-4-carboxanilide Hydrochloride]: the minimal effective dose stood at 3 mg/kg.

For the compound `Cc1cc(NC(=O)C2CCOCC2)ccc1OCCNC(C)C.Cl` [Example 77, 4'-[2-(Isopropylamino)ethoxy]-3'-methyl-3,4,5,6-tetrahydro-2H-pyran-4-carboxanilide Hydrochloride], the minimal effective dose was 10 mg/kg.

Regarding `COc1cccc(OC)c1C(=O)Nc1ccc(OCCNC(C)C)c(NS(C)(=O)=O)c1` [Example 65, 4'-[2-(Isopropylamino)ethoxy]-3'-methanesulfonamido-2,6-dimethoxybenzanilide], the minimal effective dose was 10 mg/kg.

Consider `CC(C)NCCOc1ccc(NC(=O)c2ccccc2S(C)(=O)=O)cc1NS(C)(=O)=O.Cl` [Example 5, 4'-[2-(isopropylamino)ethoxy]-3'-methanesulfonamido-2-(methanesulfonyl)benzanilide Hydrochloride], for which the minimal effective dose came out at 10 mg/kg.

For the compound `CCN(CC)CCOc1ccc(NC(=O)c2ccccc2NS(C)(=O)=O)cc1.Cl` [Example 9, 4'-[2-(Diethylamino)ethoxy]-2-(methanesulfonamido)benzanilide Hydrochloride], the minimal effective dose turned out to be 10 mg/kg.

`CCN(CC)CCOc1ccc(NC(=O)c2ccccc2NS(=O)(=O)C(C)C)cc1.Cl` [Example 12, 4'-[2-(Diethylamino)ethoxy]-2-(isopropanesulfonamido)benzanilide Hydrochloride]: the minimal effective dose was determined as 3 mg/kg.

For `CCCN(CCC)CCOc1ccc(NC(=O)c2c(C)cccc2C)cc1` [Example 14, 4'-[2-(Dipropylamino)ethoxy]-2,6-dimethylbenzanilide], the minimal effective dose stood at 3 mg/kg.

Turning to `COCCC(=O)Nc1ccc(OCCNC(C)C)c(OC)c1` [Example 57, 4'-[2-(Isopropylamino)ethoxy]-3-methoxy-3-methoxypropananilide], the minimal effective dose is 10 mg/kg.

With `COCCC(=O)Nc1ccc(OCCNC2CC2)cc1` [Example 53, 4'-[2-(Cyclopropylamino)ethoxy]-3-methoxypropananilide], the minimal effective dose was 10 mg/kg.

As to `Cc1cc(NC(=O)c2ccccc2NS(C)(=O)=O)cc(C)c1OCCNC(C)C.Cl` [Example 6, 4'-[2-(isopropylamino)ethoxy]-2-methanesulfonamido-3',5'-dimethylbenzanilide Hydrochloride], the minimal effective dose was 10 mg/kg.

Consider `CC(C)(C)NCCOc1ccc(NC(=O)c2ccccc2NS(C)(=O)=O)cc1` [Example 40, 2-Methanesulfonamido-4'-[2-(tert-butylamino)ethoxy]benzanilide], for which the minimal effective dose stood at 0.3 mg/kg.

For `CS(=O)(=O)Nc1cc(NC(=O)c2ccccc2NS(C)(=O)=O)ccc1OCCNC1CCCC1.Cl` [Example 68, 4'-[2-(Cyclopentylamino)ethoxy]-2-methanesulfonamido-3'-(methanesulfonamido)benzanilide Hydrochloride], the minimal effective dose turned out to be 10 mg/kg.

As to `CCCNCCOc1ccc(NC(=O)C2CCOC2)cc1.Cl` (stereo not drawn) [Example 27, 4'-[2-(Propylamino)ethoxy]-2,3,4,5-tetrahydro-3-furanilide Hydrochloride], the minimal effective dose is 3 mg/kg.

Take `CC(C)NCCOc1ccc(NC(=O)c2ccoc2)cc1NS(C)(=O)=O.Cl` [Example 67, 4'-[2-(Isopropylamino)ethoxy]-3'-methanesulfonamido-3-furanilide Hydrochloride]: the minimal effective dose was 10 mg/kg.

As to `CCNCCOc1ccc(NC(=O)c2ccoc2)cc1.Cl` [Example 25, 4'-[(2-Ethylamino)ethoxy]-3-furanilide Hydrochloride], the minimal effective dose amounted to 10 mg/kg.

As for `COc1cccc(OC)c1C(=O)Nc1ccc(OCCN2CCCC2)cc1` [Example 16, 2,6-Dimethoxy-4'-[2-(1-pyrrolidinyl)ethoxy]benzanilide], the minimal effective dose turned out to be 10 mg/kg.

Regarding `CCNCCOc1ccc(NC(=O)c2ccoc2)cc1OC.Cl` [Example 56, 4'-[2-(Ethylamino)ethoxy]-3'-methoxy-3-furanilide Hydrochloride], the minimal effective dose was 10 mg/kg.

On to `COCCNCCOc1ccc(NC(=O)c2c(OC)cccc2OC)cc1` [Example 41, 4'-[2-[(2-Methoxyethyl)amino]ethoxy]-2,6-dimethoxy Benzanilide], for which the minimal effective dose amounted to 10 mg/kg.

The same test, now with this note: intravenous, anesthetized dogs, as hydrochloride.
“4'-[2-(Dimethylamino)ethoxy]-2,6-diethylbenzanilide [Example 7]”: the “minimum dose level which suppresses atrial fibrillation” value was determined as 3.0 mg/kg.

As to “4'-[2-(Dipropylamino)ethoxy]-2,6-dimethoxybenzanilide [Example 15]”, the “minimum dose level which suppresses atrial fibrillation” value is 10 mg/kg.
